Results published in PMC11523249, “Expanding the antiprotozoal activity and the mechanism of action of n-butyl and iso-butyl ester of quinoxaline-1,4-di-N-oxide derivatives against Giardia lamblia, Trichomonas vaginalis, and Entamoeba histolytica. An in vitro and in silico approach” (Journal of Enzyme Inhibition and Medicinal Chemistry, 2024).
Like-named read-outs stand apart in the source and are kept apart here.

Tests used:
G. lamblia WB strain = assay: In vitro susceptibility assay, G. lamblia trophozoites; assay type: cell-based, Giardia lamblia; conditions: Giardia duodenalis, 48 h, read-out: G. lamblia (IC50 nM), trophozoites, 48 h at 37 °C, subcultured 48 h, Probit analysis
Procedure: (§1) G. lamblia WB strain, T. vaginalis GT3 strain, and E. histolytica strain HM1-IMSS were used in all experiments, all parasitic strains were obtained from the Unidad de Investigación Médica en Enfermedades Infecciosas y Parasitarias, Hospital de Pediatría, Instituto Mexicano del Seguro Social. In vitro susceptibility assays to determine IC50 values were performed using a method previously described. For this, 4 × 10^4 G. lamblia; 6 × 10^3 E. histolytica, or 4 × 10^4 T. vaginalis trophozoites were incubated for 48 h at 37 °C with different concentrations of quinoxaline derivatives T-137 to T-170 (0.5 ng/mL to 10 μg/mL) using dimethyl sulfoxide (DMSO) (0.05%) as solvent. Metronidazole and albendazole were used as positive controls, and parasites in the medium without drugs containing DMSO (0.05%) were included as negative controls. At the end of the incubation period, trophozoites were washed and subcultured for another 48 h in a fresh medium without drugs. Then, trophozoites were counted with a haemocytometer and the IC50 was calculated by Probit analysis. Experiments were carried out in triplicate and repeated at least twice.

T. vaginalis GT3 strain = assay: In vitro susceptibility assay, T. vaginalis trophozoites; assay type: cell-based, Trichomonas vaginalis
Procedure: as §1

[1] = test system: E. histolytica strain HM1-IMSS; assay: In vitro susceptibility assay, E. histolytica trophozoites; assay type: cell-based, Entamoeba histolytica
Procedure: as §1

[2] = test system: murine macrophage cell line J774.2; assay: Cytotoxic evaluation, MTT colorimetric assay; assay type: cell-based; conditions: murine macrophages J774.2, read-out: Cytotoxicity (Macrophages J774.2) (CC50)
Procedure: The murine macrophage cell line J774.2 was maintained in culture flasks with RPMI 1640 medium supplemented with 10% FBS, and 100 U/mL antibiotic-antifungal mixture (Gibco). Cells were incubated at 37 °C with 5% CO2 and humidity. Murine macrophage cell line J774.2 is maintained at Laboratorio de Estudios Epidemiológicos, Clínicos, Diseños Experimentales e Investigación, Facultad de Ciencias Químicas, Universidad Autónoma “Benito Juárez” de Oaxaca. Macrophages were washed and viability was assessed by the MTT colorimetric assay. In a 96-well microplate, 1 × 10^5 macrophages were added per well and a dose-response assay was performed. Compounds were evaluated using serial dilutions to determine half-maximal cytotoxic concentration (CC50) values in triplicate considering 0.2% DMSO as negative control.

[3] = target: T1, recombinant E. histolytica thioredoxin reductase (EhTRXR) (Entamoeba histolytica, UniProt C4LW95); assay: Inhibition of EhTrxR DTNB reductase activity; assay type: biochemical; conditions: for inhibition at 100 µM: pH 7, read-out: EhTrxR inhibitory effect (disulphide reductase activity)
T1 construct: His-tag (pET28a) (N); made in house; host or cells: E. coli BL21 (DE3)
T1 sequence (C4LW95 1-314): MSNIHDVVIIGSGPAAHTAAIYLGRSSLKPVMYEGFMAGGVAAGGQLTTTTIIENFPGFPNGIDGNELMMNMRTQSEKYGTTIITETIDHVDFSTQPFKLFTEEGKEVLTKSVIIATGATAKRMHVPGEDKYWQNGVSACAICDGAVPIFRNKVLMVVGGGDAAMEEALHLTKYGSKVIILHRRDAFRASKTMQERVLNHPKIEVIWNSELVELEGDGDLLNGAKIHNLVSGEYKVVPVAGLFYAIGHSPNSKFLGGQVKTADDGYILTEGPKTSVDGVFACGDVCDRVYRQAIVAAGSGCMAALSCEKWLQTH
Procedure: Recombinant E. histolytica thioredoxin reductase (EhTRXR) was expressed in E. coli BL21 (DE3) as His-tag (N-terminal) recombinant proteins using pET28a vector, and it was purified using IMAC as previously described. 5,5′-Dithiobis(2-nitrobenzoic acid) (DTNB) reductase activity was measured by monitoring the production of thionitrobenzoate at 405 nm in a reaction mixture comprising 50 mM potassium phosphate, pH 7.0, 2 mM EDTA, 300 µM NADPH, 5 mM DTNB, and 0.1 µM EhTRXR. Activity was calculated using the molar extinction coefficient at 405 nm of 13.6 mM^−1cm^− 1 and considering that 1 mol of NADPH yields 2 mol of thionitrobenzoate. The enzyme assays were performed at 30 °C, in a final volume of 50 μL, and using a Multiskan Ascent one-channel vertical light path filter photometer (Thermo Electron Co.). All results represent the arithmetic mean of at three independent experiments.

[4] = Trichomonas vaginalis, GT3, 48 h, read-out: T. vaginalis (IC50 nM), trophozoites, 48 h at 37 °C, subcultured 48 h, Probit analysis
[5] = read-out: T. vaginalis (IC50 nM), trophozoites, 48 h at 37 °C, subcultured 48 h, Probit analysis
[6] = Entamoeba histolytica, 48 h, read-out: E. histolytica (IC50 nM), trophozoites, 48 h at 37 °C, subcultured 48 h, Probit analysis
[7] = read-out: E. histolytica (IC50 nM), trophozoites, 48 h at 37 °C, subcultured 48 h, Probit analysis

Row | SMILES | IC50 (G. lamblia WB strain) [nM] | IC50 (T. vaginalis GT3 strain; [4]) [nM] | IC50 (T. vaginalis GT3 strain; [5]) [nM] | IC50 [1, 6] [nM] | IC50 [1, 7] [nM] | CC50 [2] [nM] | inhibition at 100 µM [3] [%] | EhTrxR inhibitory effect (disulphide reductase activity) ([3]; 100 µM compound, 5 mM DTNB, 300 µM NADPH, 30 °C, pH 7.0) | IC50 ([3]; DTNB reductase activity, 30 °C, pH 7.0) [nM]
1 | CCCCOC(=O)c1ccc2c(c1)[n+]([O-])c(C(=O)OC(C)(C)C)c(C)[n+]2[O-] [Compound T-140] | 49.2 ± 2.66 | ~100 | 101 ± 3.99 | ~30 | 29.2 ± 2.66 | > 200000 | 50 to 75 | – | –
2 | CCCCOC(=O)c1ccc2c(c1)[n+]([O-])c(C(C)=O)c(C)[n+]2[O-] [Compound T-137] | 77 ± 9.43 | 258 ± 6.29 | – | 83.3 ± 1.57 | – | 58400 ± 1120 | – | – | –
3 | CCCCOC(=O)c1ccc2c(c1)[n+]([O-])c(C(=O)c1ccc3ccccc3c1)c(C(F)(F)F)[n+]2[O-] [Compound T-150] | 51.6 ± 2.27 | 124 ± 2.27 | – | 36.1 ± 1.14 | – | > 200000 | – | – | –
4 | CCCCOC(=O)c1ccc2c(c1)[n+]([O-])c(C(=O)Nc1ccccc1)c(-c1ccccc1)[n+]2[O-] [Compound T-151] | 114 ± 4.38 | 153 ± 3.28 | – | 65.6 ± 2.19 | – | 44100 ± 3450 | – | – | –
5 | CCCCOC(=O)c1ccc2c(c1)[n+]([O-])c(C(=O)OCC)c(C)[n+]2[O-] [Compound T-139] | 47.4 ± 5.75 | ~100 | 103 ± 2.87 | ~30 | 34.5 ± 7.18 | > 200000 | – | – | –
6 | COC(=O)c1c(C)[n+]([O-])c2ccc(C(=O)OCC(C)C)cc2[n+]1[O-] [Compound T-156] | 95.8 ± 4.49 | 248 ± 5.99 | – | 59.9 ± 5.99 | – | – | – | – | –
7 | Cc1ccc(NC(=O)c2c(C)[n+]([O-])c3ccc(C(=O)OCC(C)C)cc3[n+]2[O-])c(C)c1 [Compound T-159] | 94.5 ± 3.54 | 105 ± 1.18 | – | 30.7 ± 5.91 | – | > 200000 | – | low inhibition | –
8 | CC(C)COC(=O)c1ccc2c(c1)[n+]([O-])c(C(=O)Nc1ccccc1)c(-c1ccccc1)[n+]2[O-] [Compound T-169] | 98.4 ± 2.19 | 116 ± 5.47 | – | 43.7 ± 2.19 | – | > 200000 | 50 to 75 | – | –
9 | CCCCOC(=O)c1ccc2c(c1)[n+]([O-])c(C(C)=O)c(C(F)(F)F)[n+]2[O-] [Compound T-145] | 40.3 ± 6.72 | 108 ± 16.1 | – | 57.8 ± 6.72 | – | > 200000 | > 75 | – | 16000
10 | CC(C)COC(=O)c1ccc2c(c1)[n+]([O-])c(C(=O)c1cccs1)c(C(F)(F)F)[n+]2[O-] [Compound T-164] | 107 ± 9.21 | 118 ± 10.5 | – | 27.3 ± 5.26 | – | 43800 ± 1890 | – | – | –
11 | CCCCOC(=O)c1ccc2c(c1)[n+]([O-])c(C(=O)OC)c(C)[n+]2[O-] [Compound T-138] | 48.5 ± 1.5 | 88 | 88.3 ± 12 | ~40 | 40.4 ± 4.49 | 46200 ± 3260 | – | – | –
12 | CCCCOC(=O)c1ccc2c(c1)[n+]([O-])c(C(=O)Nc1ccc(C)cc1C)c(C)[n+]2[O-] [Compound T-144] | 46.1 ± 1.18 | 118 ± 4.73 | – | 47.3 ± 4.73 | – | – | – | – | –
